Here are results for eight compounds from PubChem BioAssay (NCI).

The structures appear in SMILES notation.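 Where inhibition never reached the appropriate level, the endpoint shown equals the highest concentration tested. Otherwise, values were interpolated linearly from a five-concentration, 48-hour dose response in 96-well plates. The concentration for full growth arrest is given as TGI.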

Some test systems named below: MCF7 breast; MDA-N; NCI-H226 lung; EKVX NSCLC; PC-3 prostate; SF-295 CNS; SK-OV-3 ovarian; UACC-257 melanoma; SN12C renal; HCC-2998 colon; MDA-MB-231 breast.
What all share (test): NCI anticancer screen, dose series, 48 h

On to `C#C/C=C\CCCCCCCCCCCCCC/C=C\CCCCC#CC(O)C#CCCCC/C=C\CCCCCC/C=C/C(O)C#C` (stereo not drawn), for which the TGI in the test on MCF7 breast is over 40.2 µM; with MDA-N, 24.2 µM; in the test with NCI-H226 lung, over 59.4 µM; with EKVX NSCLC it was 35.9 µM; in the test on PC-3 prostate, over 57.7 µM; with SF-295 CNS, over 55.6 µM. For the same compound, the TGI in the test on SK-OV-3 ovarian was over 75 µM; in the test with UACC-257 melanoma, over 63.4 µM; in the test with SN12C renal it was over 75 µM; with HCC-2998 colon it was 37 µM; with MDA-MB-231 breast it was over 75 µM.
With `CC(Oc1ccccc1Cl)C(=O)NN1C(=O)CC(=O)NC1=S` (stereo not drawn), the TGI in the test on MCF7 breast, in the test on MDA-N, with NCI-H226 lung, in the test with EKVX NSCLC, in the test on PC-3 prostate and in the test on SF-295 CNS was over 100 µM each time. Further, the TGI with SK-OV-3 ovarian, in the test on UACC-257 melanoma, with SN12C renal, with HCC-2998 colon and with MDA-MB-231 breast was over 100 µM throughout.
For `O=C(O)c1cc(=O)c2c(OCC(O)COc3cccc4oc(C(=O)O)cc(=O)c34)cccc2o1`, the TGI with MCF7 breast, with MDA-N, with NCI-H226 lung, in the test with EKVX NSCLC, in the test with PC-3 prostate and in the test with SF-295 CNS was over 100 µM throughout. In addition, the TGI in the test with SK-OV-3 ovarian, in the test on UACC-257 melanoma, with SN12C renal, in the test with HCC-2998 colon and in the test on MDA-MB-231 breast was over 100 µM throughout.
Take `Cc1ccc([N+](=O)[O-])cc1S(=O)(=O)Nc1ccc(C2=NOC(c3cccs3)C2)cc1` (stereo not drawn): the TGI in the test with MCF7 breast was 23.4 µM; in the test on MDA-N, 10.4 µM; in the test with NCI-H226 lung, over 100 µM; with EKVX NSCLC, 65 µM; in the test with PC-3 prostate it was over 100 µM; with SF-295 CNS it was 44.1 µM. For the same compound, the TGI in the test with SK-OV-3 ovarian was 52.2 µM; in the test with UACC-257 melanoma it was 49.6 µM; in the test on SN12C renal it was 53.3 µM; in the test on HCC-2998 colon, 21.9 µM; in the test on MDA-MB-231 breast it was over 100 µM.
As for `COc1ccc(OC)c(C2CCc3c(cnc4nc(N)nc(N)c34)C2)c1` (stereo not drawn), the TGI with MCF7 breast was determined as 24.3 µM; in the test with MDA-N it was 17.2 µM; in the test with NCI-H226 lung it was 54.8 µM; with EKVX NSCLC, 24.2 µM; in the test on PC-3 prostate, 27.5 µM; in the test on SF-295 CNS, 23.3 µM. For the same compound, the TGI with SK-OV-3 ovarian amounted to 31.2 µM; in the test with UACC-257 melanoma, 23.4 µM; in the test with SN12C renal, 22 µM; with HCC-2998 colon, 44.6 µM; in the test on MDA-MB-231 breast, 29.2 µM.
For the compound `OCCCNc1ncnc2[nH]ncc12`, the TGI in the test with MCF7 breast, in the test with MDA-N, in the test with NCI-H226 lung, in the test with EKVX NSCLC, in the test on PC-3 prostate and with SF-295 CNS was over 100 µM each time. Besides, the TGI in the test with SK-OV-3 ovarian, in the test on UACC-257 melanoma, with SN12C renal, in the test on HCC-2998 colon and in the test with MDA-MB-231 breast was over 100 µM each time.
In the case of `CCOC(=O)CCSc1nc2ccc(I)cc2c(=O)n1Cc1ccccc1`, the TGI was over 100 µM with MCF7 breast; over 86.7 µM in the test on MDA-N; over 100 µM in the test with NCI-H226 lung; 82.4 µM in the test with EKVX NSCLC; over 100 µM with PC-3 prostate; over 73.3 µM with SF-295 CNS. Further, the TGI with SK-OV-3 ovarian is over 100 µM; in the test on UACC-257 melanoma, over 92.2 µM; in the test with SN12C renal, over 100 µM; with HCC-2998 colon, over 71.2 µM; in the test with MDA-MB-231 breast, over 100 µM.
Regarding `CC(C)CC(=O)NC(C(=O)NC(C(=O)NC(CC(C)C)C(O)CC(=O)NC(C)C(=O)NC(CC(C)C)C(O)CC(=O)O)C(C)C)C(C)C` (stereo not drawn), the TGI in the test with MCF7 breast, in the test with MDA-N, with NCI-H226 lung, in the test with EKVX NSCLC, in the test with PC-3 prostate and in the test on SF-295 CNS was over 100 µM each time. Besides, the TGI in the test with SK-OV-3 ovarian, in the test with UACC-257 melanoma, in the test on SN12C renal, in the test on HCC-2998 colon and in the test with MDA-MB-231 breast was over 100 µM each time.
